Reference: US10435396B2, “2-substituted indazoles, methods for producing same, pharmaceutical preparations that contain same, and use of same to produce drugs” (Bayer Pharma Aktiengesellschaft, priority 2016, dated 2019)
pIC50: −log10 of the molar value. Read-outs that look alike come from different tables or passages of the source.

Tests used:
[1] = test system: NF-kB activity in TMD-8-NF-kB-luc cells; assay: NF-kB reporter assay; assay type: cell-based, human; settings: 6 h, One-Glo, read-out: IC50 with respect to the inhibition of NF-kB activity in TMD-8-NF-kB-luc cells
Procedure: NF-kB Reporter Assay The effect of the inventive compounds of the general formula (I) on the NF-kB signalling pathway was examined in vitro in human DLBCL cells (see Table 4). 10 000 TMD-8-NF-kB-luc reporter cells at 30 μl/cavity in growth medium (RPMI (Biochrom: FG 1215), 20% FCS (Biochrom: S 0615)) were transferred into a 384-cavity plate (Perkin Elmer, white) and incubated at 37° C. overnight. After 24 h, the cells were treated with the test substances and incubated at 37° C. for 6 h. The test substances were added to the cells in a 7-stage, 3-fold dilution series using an HP D300 digital dispenser. As control, the cells were treated with the vehicle (DMSO). After 6 h, the cells were treated with 30 μl/well One-Glo solution (Promega, E6110) and incubated at room temperature for 10 min, and the luminescence was measured using a VICTOR V (Perkin Elmer) in order to determine the NF-kB reporter activity at the end of the treatment. The percentage effect of the NF-kB reporter activity and the IC50 derived therefrom were determined for each test substance with the aid of the values for an NF-kB pathway inhibitor (I-kappa B kinase inhibitor) (−)-7-[2-(cyclopropylmethoxy)-6-hydroxyphenyl]-5-[(3S)-3-piperidinyl]-1,4-dihydro-2H-pyrido[2,3-d][1,3]oxazin-2-one (CAS Number 600734-02-9; see WO 2003076447) (=maximum inhibition) and the DMSO control (=minimum inhibition). The IC50 values were calculated using a 4-parameter fit.

[2] = test system: secretion of TNF-α in THP-1 cells; assay: TNF-α secretion in THP-1 cells (LPS-triggered); assay type: cell-based, human; settings: LPS 0.05 μg/ml, read-out: IC50 with respect to the secretion of TNF-α in THP-1 cells
Procedure: TNF-α Secretion in THP-1 Cells
With the aid of this test, it is possible to test substances for their ability to inhibit secretion of TNF-α (tumour necrosis factor alpha) in THP-1 cells (human monocytic acute leukaemia cell line). TNF-α is a cytokine involved in inflammatory processes. In this test, TNF-α secretion is triggered by incubation with bacterial lipopolysaccharide (LPS).
THP-1 cells are kept in continuous suspension cell culture [RPMI 1460 medium with L-Glutamax (Gibco, Cat No. 61870-044) supplemented with foetal calf serum (FCS) 10% (Invitrogen, Cat No. 10082-147), 1% penicillin/streptomycin (Gibco BRL, Cat No. 15140-114)] and should not exceed a cell concentration of 1×10^6 cells/ml. The assay is carried out in cell culture medium (RPMI 1460 medium with L-Glutamax supplemented with FCS 10%).
In each case 2-2.5 μl of the cell suspension (corresponds to 4000 cells) per well were dispensed into a 384-well test plate (Greiner, Cat No. 784076), in each of which 40-50 nl substance had been dissolved in 100% DMSO. This was done using […] in the range from 20 μM to 0.073 nM for each substance. The cells were incubated at room temperature for 15 min. 2-2.5 μl of 0.1 μg/ml LPS (Sigma, Escherichia coli 055:B5, Cat. No. L5418) dissolved in cell culture medium (final concentration 0.05 μg/ml) were then dispensed into each well. As neutral control, cells were treated with 0.05 μg/ml LPS and 1% DMSO and, as inhibitor control, with 1% DMSO only.
The plates were centrifuged at 80 g for 30 s and incubated at 37° C., 5% CO2 and 95% atmospheric humidity for 17 h. The amount of TNF-α was determined using the TNF-alpha HTRF Detection Kit (Cisbio, Cat No. 62TNFPEB/C). To this end, 2 μl of the detection solution in each case, consisting of anti-TNF-α-XL665 conjugate and anti-TNF-α-cryptate conjugate dissolved in the reconstitution buffer in accordance with the manufacturer's instructions, were added for the HTRF (Homogeneous Time-Resolved Fluorescence) test. After the addition, the mixture was incubated either at room temperature for 3 h or at 4° C. overnight. The signals were then read at 620/665 nm using an HTRF-enabled measuring instrument such as the BMG PheraStar.
The activity of the substances is expressed as the ratio between neutral and inhibitor control in percent. The IC50 values were calculated using a 4-parameter fit.

pIC50 ([1]; Homo sapiens)	pIC50 ([2]; Homo sapiens, THP-1, 17 h)	pIC50 [1]	pIC50 ([2]; 17 h)	Structure (SMILES)
5.57	6.39	–	–	COc1cc2nn(C3CCOCC3)cc2cc1NC(=O)c1cccc(C(C)(C)O)n1 [Example 28, 6-(2-Hydroxypropan-2-yl)-N-[6-methoxy-2-(tetrahydro-2H-pyran-4-yl)-2H-indazol-5-yl]pyridine-2-carboxamide]
5.26	7.22	–	–	COc1cc2nn([C@@H]3C[C@@H]4C[C@H]3CN4C)cc2cc1NC(=O)c1cccc(C(F)(F)F)n1 (relative stereo) [Example 18, rel-N-{6-Methoxy-2-[(1S,4S,5R)-2-methyl-2-azabicyclo[2.2.1]hept-5-yl]-2H-indazol-5-yl}-6-(trifluoromethyl)pyridine-2-carboxamide]
5.02	6.89	–	–	COc1cc2nn(C3CCNCC3)cc2cc1NC(=O)c1cccc(C(F)(F)F)n1 [Example 2, N-[6-Methoxy-2-(piperidin-4-yl)-2H-indazol-5-yl]-6-(trifluoromethyl)pyridine-2-carboxamide]
5.17	7.00	–	–	COc1cc2nn(C3CC[S+]([O-])CC3)cc2cc1NC(=O)c1cccc(C(F)(F)F)n1 (racemic) [Example 12, rac-N-[6-Methoxy-2-(1-oxidotetrahydro-2H-thiopyran-4-yl)-2H-indazol-5-yl]-6-(trifluoromethyl)pyridine-2-carboxamide]
–	–	4.66	7.22	COc1cc2nn(C3CCS(=N)(=O)CC3)cc2cc1NC(=O)c1cccc(C(F)(F)F)n1 (single isomer, unassigned) [Example 20, N-[2-(1-Imino-1-oxidohexahydro-1λ^4-thiopyran-4-yl)-6-methoxy-2H-indazol-5-yl]-6-(trifluoromethyl)pyridine-2-carboxamide]
4.65	6.77	–	–	COc1cc2nn(C3CCOCC3)cc2cc1NC(=O)c1cccc(N2CCOCC2)n1 [Example 24, N-[6-Methoxy-2-(tetrahydro-2H-pyran-4-yl)-2H-indazol-5-yl]-6-(morpholin-4-yl)pyridine-2-carboxamide]
5.29	6.68	–	–	COc1cc2nn(C3CCN(C(=O)CO)CC3)cc2cc1NC(=O)c1cccc(C(F)(F)F)n1 [Example 5, N-[2-(1-Glycoloylpiperidin-4-yl)-6-methoxy-2H-indazol-5-yl]-6-(trifluoromethyl)pyridine-2-carboxamide]
4.84	6.77	–	–	CC(C)(O)c1cc2nn(C3CCS(=O)(=O)CC3)cc2cc1NC(=O)c1cccc(C(F)(F)F)n1 [Example 44, N-[2-(1,1-Dioxidotetrahydro-2H-thiopyran-4-yl)-6-(2-hydroxypropan-2-yl)-2H-indazol-5-yl]-6-(trifluoromethyl)pyridine-2-carboxamide]
5.13	6.85	–	–	COc1cc2nn(C3CCN(C)CC3)cc2cc1NC(=O)c1cccc(C(F)(F)F)n1 [Example 4, N-[6-Methoxy-2-(1-methylpiperidin-4-yl)-2H-indazol-5-yl]-6-(trifluoromethyl)pyridine-2-carboxamide]
–	–	5.28	6.77	COc1cc2nn(C3CCS(=N)(=O)CC3)cc2cc1NC(=O)c1cccc(C(F)(F)F)n1 (single isomer, unassigned) [Example 21, N-[2-(1-Imino-1-oxidohexahydro-1λ^4-thiopyran-4-yl)-6-methoxy-2H-indazol-5-yl]-6-(trifluoromethyl)pyridine-2-carboxamide]
4.54	6.77	–	–	COc1cc2nn(C3CCN(C4COC4)CC3)cc2cc1NC(=O)c1cccc(C(F)(F)F)n1 [Example 10, N-{6-Methoxy-2-[1-(oxetan-3-yl)piperidin-4-yl]-2H-indazol-5-yl}-6-(trifluoromethyl)pyridine-2-carboxamide]
5.29	6.85	–	–	COc1cc2nn(C3CCN(CCO)CC3)cc2cc1NC(=O)c1cccc(C(F)(F)F)n1 [Example 13, N-{2-[1-(2-Hydroxyethyl)piperidin-4-yl]-6-methoxy-2H-indazol-5-yl}-6-(trifluoromethyl)pyridine-2-carboxamide]
4.81	6.68	–	–	COc1cc2nn(C3CCOCC3)cc2cc1NC(=O)c1cccc(C(F)(F)F)n1 [Example 1, N-[6-Methoxy-2-(tetrahydro-2H-pyran-4-yl)-2H-indazol-5-yl]-6-(trifluoromethyl)pyridine-2-carboxamide]
5.42	6.64	–	–	COc1cc2nn(C3CCOCC3)cc2cc1NC(=O)c1cccc(C(F)F)n1 [Example 23, 6-(Difluoromethyl)-N-[6-methoxy-2-(tetrahydro-2H-pyran-4-yl)-2H-indazol-5-yl]pyridine-2-carboxamide]
4.87	7.05	–	–	CC(C)(O)c1cc2nn(C3CCNCC3)cc2cc1NC(=O)c1cccc(C(F)(F)F)n1 [Example 46, N-[6-(2-Hydroxypropan-2-yl)-2-(piperidin-4-yl)-2H-indazol-5-yl]-6-(trifluoromethyl)pyridine-2-carboxamide]
